Earlier results on three compounds are cited in patent publication US11759447B1, “Compound and method for treating diseases and disorders” (RCR BIOPHARMA, priority 2019, dated 2023).

SMILES strings stand for the structures.

Data set [1] deals with dogs.
For data set [2] the following is noted: oral forms such as CBD treats.
Data set [3] deals with dogs. Particulars: high levels of hemp-derived CBD (<0.3% THC).
The test system of data set [4] is dogs. Particulars: IV.

For the compound `COc1cccc(C2(O)CCCCC2CN(C)C)c1` (stereo not shown) [tramadol, Tramadol], in the data set with dogs [1], the “peak vertical force or vertical impulse versus placebo” value was “no improvement”.
With `C=C(C)[C@@H]1CCC(C)=C[C@H]1c1c(O)cc(CCCCC)cc1O` [CBD, Cannabidiol], in data set [2], the “fraction of orally administered CBD ultimately absorbed, on average” value is 5-10%. The dogs with ataxia in the data set with dogs [3] is on record as 2 of the 10.
With `CCCCCc1cc(O)c2c(c1)OC(C)(C)[C@@H]1CCC(C)=C[C@@H]21` [THC, Δ-9-tetrahydrocannabinol], in the data set on dogs [4], the “dose causing Static Ataxia” value is listed as more than 0.5 mg/kg.
